Reference: patent US20230184743A1, “SCREENING METHODS TO IDENTIFY SMALL MOLECULE COMPOUNDS THAT PROMOTE OR INHIBIT THE GROWTH OF CIRCULATING TUMOR CELLS, AND USES THEREOF” (University of Southern California, priority 2020, published 2023)

Columns and labels:
[1] = system: breast cancer circulating tumor cell (CTC); assay: Breast cancer CTC growth screen; type: cell-based, human; conditions: added at 1 uM
Protocol: Using the assay system described herein CTC were contact with a panel of small molecule drugs and the effect of the drugs on cell growth, migration, proliferation and gene expression was measured. […] This was initially found in a breast cancer circulating tumor cell (CTC) growth screen.

[2] = system: MCF7 cells, MDA-MB-231 cells, T47D cells; assay: Senescence assay: β-galactosidase activity; type: cell-based; conditions: various concentrations
From the text: (A) MCF7 cells. (B) MDA-MB-231 cells. (C) T47D cells.
Because an arrested state in which the cell remains viable, are not stimulated to divide by serum or passage in culture, a specific cell cycle profile is illicited that differs from most damage-induced arrest processes or contact inhibition. Characteristics of senescence cells include an enlarged cell size, expression of pH-dependent β-galactosidase activity, and an altered pattern of gene expression. To determine these characteristics, CTC cells were cultured with a compound of Formula II or cx-4945 (Silmitasertib) at various concentrations and β-galactosidase activity was measured.

[3] = system: single CTCs from 4 patient-derived CTC lines (BRx07, BRx42, BRx50, and BRx68); assay: Validation of candidate compounds: single CTC proliferation over 24 days (AUC); type: cell-based, human
Protocol: (§1) Cell culture. CTC lines were previously derived from metastatic breast cancer patients. CTC lines were cultured in ultra-low attachment plates with RPMI 1640 medium, supplemented with EGF (20 ng/mL), bFGF (20 ng/mL), 1×B27 and 1× antibiotic/antimycotic, in 4% 02 and 5% CO2. Single CTCs were cultured in GravityTRAP™ ULA 96 well Plates (PerkinElmer). Wells on the edges of the plates were not used to avoid influence from evaporation. Media with fresh compounds were exchanged every 3 days by inserting pipet tips onto the platform of the wells to prevent accidentally aspirating suspended CTCs at the bottom. CTC numbers were counted manually under an inverted microscope every 6 days.
FACS sorting. Cells were pelleted and resuspended into single cell suspension in 1% BSA in PBS buffer with 7-AAD. Live single CTCs were sorted directly into 96-well GravityTRAP™ ULA Plates using a MoFlo cell sorter (Beckman Coulter). An inverted microscope was used to manually confirm that there was 1 CTC per well, 1 hour after sorting.
Compounds screening. Compounds were from the StemSelect library obtained from the Choi Family Therapeutic Screening Facility at the Eli and Edythe Broad CIRM Center for Regenerative Medicine and Stem Cell Research at USC. Each compound was given a code to ensure unbiased assessment and blinded to the investigators. Compound information is listed in Appendix, at Table 1 of US Provisional Application No. U.S. 62/990,445, incorporated herein by reference). In the first-round screening, compounds were used with […] concentration. Stocks of compounds (10 mM concentration in DMSO) were stored in aliquots at −80° C. All compounds were thawed and refrozen for a maximum of 2 times. In the second-round validation, fresh compounds were dissolved in DMSO (Millipore sigma), and aliquots were stored at −20° C. and used only once without refreezing. Only wells started from single cells on day 0 after sorting were used in the screening experiment. Data collection was done in batches.
(§2) Statistical analysis. […] AUC was calculated for each well in each batch, by plotting days in the x-axis and the corresponding number of cells in the y-axis, then drawing a line to connect the number of cells from the starting count day to the next count day until the end day, and finally calculating the area under this line as the sum of areas of trapezoids. […] Statistical tests were performed using R. For absolute number of cells quantification, total number of cells at end of experiment in each well in each batch was compared between treated cells and untreated control and significance was analyzed with Student t test. For other experiments, data were analyzed with Student t test, and represent the means±SEM of at least triplicate samples or averages ±SD of independent analyses, as indicated. […]

[4] = system: BRx42; assay: Single CTC proliferation over 24 days (AUC), BRx42 line; type: cell-based, human
Protocol: as §1
(§3) FACS sorting. […]
as §2, with “test.” for “test. For other experiments, data were analyzed with Student t test, and represent the means±SEM of at least triplicate samples or averages ±SD of independent analyses, as indicated.”

[5] = system: BRx68-GFP+ cells; assay: RNA-seq analysis of pools of growing single cell clones; type: cell-based, human; conditions: day 6; NAC 0.3 mM, P4D8 1 μM
Protocol: RNA-seq analysis. BRx68-GFP+ cells were sorted, with 1 cell per well, using the MoFlo cell sorter (Beckman Coulter). Single cells were cultured in the presence of CTC media containing either 1 μM of P1C2, P4D8, or P1G7, or 0.3 mM of NAC or a combination of 1 μM of P1C2 and 0.3 mM of NAC. Cells cultured in media containing DMSO served as a control. All cells were cultured for either 6 days or 13 days at 37° C., 5% CO2 and 4% O2, and media was changed every 3 days. For both day 6 and day 13 groups, only clones with more than 3 cells at day 6 were harvested and pooled to a maximum of 50 cells. […] Libraries were sequenced on an Illumina NextSeq500 to obtain 75 bp-long single-end reads.
RNA-sequencing reads were trimmed for Nextera and Illumina adapter sequences using Trim Galore under default parameters. Trimmed reads were then mapped to the human genome build GRCh37 from Ensembl (ftp:/][/ftp.ensembl.org/pub/grch37/current/fasta/homo_sapiens/dna/Homo_sapiens.GRCh37.dna_sm.primary_as sembly.fa.gz) using STAR under optimized parameters for single-end sequenced data. Aligned reads were then counted via feature-Counts and piped into DESeq2 for normalization to sequencing depth and downstream analysis. […]

[6] = system: single BRx68 cells; assay: Single CTC proliferation over 24 days (AUC), BRx68 line; type: cell-based, human
Protocol: as §1, §3
as §2, with “test.” for “test. For other experiments, data were analyzed with Student t test, and represent the means±SEM of at least triplicate samples or averages ±SD of independent analyses, as indicated.”

Compound: COc1cc(Nc2ncc3ccn(-c4cccc(CCC#N)c4)c3n2)cc(OC)c1OC [Formula II, 3-(3-(2-(3,4,5-Trimethoxy-phenylamino)-7H-pyrrolo[2,3-d]pyrimidin-7-yl)phenyl)propionitrile]
- CTC growth [1]: stopped growing
- induced senescence (β-galactosidase activity) relative to CX-4945 [2]: 3-4 fold
- proliferation of single CTCs (AUC measurement) ([3]; 4 different CTC lines over 24 days): inhibition of the proliferation

Compound: N#C/C(=C\c1ccc(-c2cc(Cl)ccc2Cl)o1)C(=O)Nc1cccc2ncccc12 [P1G3, AGK2]
- single cell growth [4]: promote single cell growth

Compound: CCNCc1cc(C(C)(C)C)c(O)c(C(C)(C)C)c1 [P4D8, LY 231617]
- lipid metabolism pathway enrichment (IPA of differentially expressed genes) compared with control [5]: enriched
- single cell growth [6]: promote single cell growth
- single cell growth ([3]; other lines (than BRx68)): inhibit growth
